Results as given in patent US8999323B2, “Composition that can be cured by polymerisation for the production of biodegradable, biocompatible, cross-linkable polymers on the basis of polyvinyl alcohol” (Technische Universität Wien, priority 2007, dated 2015).
Like-named read-outs stand apart in the source and are kept apart here.

How the values were obtained:
Format in all cases: cell-based
[1] = tested on: osteoblast-like cells MC3T3-E1; test: in vitro
From the text: (§1) In order to assess toxicity, osteoblast-like cells MC3T3-E1 (source: ATCC CRL-2596) were used. At first, the adherent cells were separated from each other and from the bottom of the petri dishes using pronase, and were then mixed with freshly prepared medium consisting of commercially available Minimal Essential Medium Eagle's alpha Modification (αMEM), supplemented with additional glucose from originally 1 g/l to a glucose concentration of 4.5 g/l as well as with 10% FCS (fetal calf serum), 30 μg/ml gentamycin (broad-spectrum antibiotic), L-glutamine (400 mg/l), and ascorbic acid (50 mg/l), so as to obtain a cell concentration of 40,000 cells/ml. 1 ml of this cell suspension was precharged into each well (diameter 1.9 cm) of multi-well plates.
(§2) The multi-well containing the cells was incubated for 5 days at 37° C. under a humid atmosphere with 5% CO2 together with increasing amounts of the monomers used in the examples and comparative examples. Then the cells were washed with phosphate-buffered physiological saline and frozen before the measurements, in order to break up the cells. After thawing of the cells, the amount of deoxyribonucleic acid, which is proportional to the cell count, was determined by staining with a fluorescent dye, measuring the fluorescence at 460 nm (after excitation at 360 nm) and comparing the value to a calibration curve previously prepared.

in vitro = conditions: mouse
From the text: as §1, §2

[2] = tested on: human umbilical vein endothelial cells (HUVEC); test: Toxicity test of monomers with endothelial cells (EZ4U)
Experimental: For an additional toxicity test of monomers of formula (I), human umbilical vein endothelial cells (HUVEC) were used. After trypsinating the confluent primary cultures, the cells were suspended in commercial Medium 199 with 20% fetal calf serum, put into 96-well cell culture plates in a concentration of 40,000 cells/cm^2, and cultivated until they were confluent again (37° C., 5% CO2). The cell supernatants were then lifted, and the endothelial cells were incubated for 24 hours with increasing monomer concentrations (0.1 nM to 1 mM in Medium 199 with 10% fetal calf serum). The influence on cell proliferation was examined by means of a non-radioactive cell proliferation and cytotoxicity test (EZ4U, Biomedica, Vienna). This test is based on the conversion by living cells of colorless tetrazolium salts into intensively colored formazan derivatives. The photochemically measured staining is proportional to the number of living cells in the sample. Thus, the influence of the test substances on the proliferation of the cells may be photometrically determined. Endothelial cells which had been cultivated without the addition of monomer solutions were used as a growth control.

[3] = MC3T3-E1, 5 days incubation, DNA fluorescence, values are LC50 × 10^4
[4] = HUVEC, 24 hours, concentration of half-maximum proliferation inhibition

Molecule | CC50 (in vitro; [3]) [mM] | CC50 at 5 days (in vitro) [mM] | further results
C=COC(=O)N(OC)C(=O)C=C [AMVCA, N-acryloyl N-methoxy vinyl carbamate] | < 0.01 | – | toxicity for osteoblasts compared with the acrylates of the comparative examples ([1]; statement on Table 2): similarly toxic as the majority of the comparative examples
C=COC(=O)CCCCC(=O)OC=C [AVE, adipic acid divinyl ester] | – | – | Cmax1/2 [2, 4]: >1000 µmol/L
C=COC(=O)OCCCCOC(=O)OC=C [BDDVC, 1,4-butanediol bis(vinyl carbonate)] | – | – | CC50 at 5 days (in vitro; osteoblast-like MC3T3-E1 cells (ATCC CRL-2596), MC3T3-E1, 5 days incubation, DNA fluorescence, values are LC50 × 10^4, read-out: In vitro LC50 × 10^4): > 10 mM
C=C(C)C(=O)OCCCCOC(=O)C(=C)C [BDMA, 1,4-butanediol dimethacrylate, reference compound] | < 0.01 | – | Cmax1/2 [2, 4]: 40 µmol/L
C=COC(=O)OCCC#N [CEVC, 2-cyanoethyl vinyl carbonate] | – | > 10 | –
C=COC(=O)OCCOCCOC(=O)OC=C [DEGDVC, diethylene glycol bis(vinyl carbonate)] | – | > 10 | –
C=COP(=O)(OCC)OCC [DEVP, diethyl vinyl phosphate] | > 10 | – | –
C=COC(=O)CCCCCCCCC [DVE, decanoic acid vinyl ester] | – | > 10 | Cmax1/2 [2, 4]: >1000 µmol/L
C=COP(=O)(OC=C)OCC [DVEP, divinyl ethyl phosphate] | > 10 | – | –
C=COC(=O)NCCOP(=O)(OCC)OCCNC(=O)OC=C [EBVCAEP, ethyl bis[2-(vinyloxycarbonylamino)ethyl]phosphate] | > 10 | – | –
C=COC(=O)OCCOC(=O)OC=C [EGDVC, ethylene glycol bis(vinyl carbonate)] | – | > 10 | –
C=COC(=O)OCC [EVC, ethylvinyl carbonate] | – | > 10 | –
C=COC(=O)OCC(COC(=O)OC=C)OC(=O)OC=C [GTVC, glycerine tris(vinyl carbonate)] | – | > 10 | –
C=CC(=O)OCCCCCCOC(=O)C=C [HDDA, 1,6-hexanediol diacrylate, reference compound] | < 0.01 | – | Cmax1/2 [2, 4]: 20 µmol/L
C=COC(=O)OCCCCCCOC(=O)OC=C [HDDVC, 1,6-hexanediol bis(vinyl carbonate)] | – | > 10 | –
C=COC(=O)CCCCC [HVE, hexanoic acid vinyl ester] | – | > 10 | Cmax1/2 [2, 4]: >1000 µmol/L
C=COC(=O)NCCCOCCOCCCNC(=O)OC=C [JAVM, 3,3′-ethylenedioxy bis(propylamine)divinyl carbamate] | > 10 | – | –

Molecule | CC50 (in vitro; [3]) [mM] | CC50 at 5 days (in vitro) [mM] | further results
C=COC(=O)CCCCCCC(=O)OC=C [KVE, octanedioic acid divinyl ester] | – | > 10 | Cmax1/2 [2, 4]: >1000 µmol/L
C=COC(=O)ON(C)C(=O)OC=C [MHADVC, N,O-Bis(vinyloxycarbonyl)-N-methyl hydroxylamine] | > 10 | – | –
C=COC(=O)NOC [MVCA, N-methoxy vinyl carbamate] | > 10 | – | –
C=COC(=O)N(C)CCN(C)C(=O)OC=C [N,N′-dimethyl ethylenediamine bis(vinyl carbamate)] | > 10 | – | –
C=COC(=O)[C@H](Cc1ccccc1)NC(C)=O [PAVE, N-acetyl phenylalanine vinyl ester] | – | > 10 | Cmax1/2 [2, 4]: >1000 µmol/L
C=COC(=O)CCCCCCCCC(=O)OC=C [SEVE, sebacic acid divinyl ester] | – | > 10 | Cmax1/2 [2, 4]: >1000 µmol/L
C=COC(=O)N(C)CC(=O)OC [SMEVCA, sarcosine methyl ester vinyl carbamate] | > 10 | – | –
C=COC(=O)CC(C)C(C)C(CC(=O)OC=C)C(C)CC(=O)OC=C (centres unmarked) [TFVE, trimeric fatty acid trivinyl ester] | – | > 10 | –
C=CC(=O)OCC(CC)(COC(=O)C=C)COC(=O)C=C [TTA, trimethylolpropane triacrylate, reference compound] | < 0.01 | – | Cmax1/2 ([2]; human, 24 h): 10 µmol/L
C=COC(=O)COCCOCCOCC(=O)OC=C [TUVE, ω,ω′-3,6,9-trioxaundecanedioic acid divinyl ester] | – | > 10 | –
C=COP(=O)(OC=C)OC=C [TVP, trivinyl phosphate] | > 10 | – | –
diethylene glycol bis[O—(O′- vinylmaleinoy1)-polylactate] [DVMPL] | – | – | Cmax1/2 [2, 4]: >1000 µmol/L
ethoxylated (20) TTA, MG 1200 [ETA, reference compound] | – | – | Cmax1/2 ([2]; human): 100 µmol/L; CC50 [1]: 70 µM
hydrated ricinus oil tris(vinyl carbonate) [HRiTVC] | – | – | CC50 [1]: > 10000 µM
polyethylene glycol diacrylate, MG 800 [PEG-DA, reference compound] | – | – | Cmax1/2 ([2]; human): 500 µmol/L; CC50 [1]: 110 µM
polyethylene glycol(400) bis(vinyl carbonate) [PEGDVC] | – | – | CC50 [1]: > 10000 µM
